Results taken from ChEMBL document CHEMBL4118089, “Pyrazine Analogs for the Treatment of Protozoal Infections” (ACS Med Chem Lett, 2017).

Experiments:
Plasmodium falciparum [1] = assay: Antiplasmodial activity against Plasmodium falciparum; type: functional, organism-based
Plasmodium falciparum [2] = assay: Antiplasmodial activity against Plasmodium falciparum infected in mouse; type: functional

IC50 (Plasmodium falciparum [1]) | Structure (SMILES) | ED90 (Plasmodium falciparum [2])
35 nM | Cc1cncc(-c2cncc(-c3ccc(C(=O)N4CCNCC4)cc3)n2)c1 | 2.2 mg/kg
25 nM | O=C(c1ccc(-c2cncc(-c3cncc(F)c3)n2)cc1)N1CCNCC1 | 1.5 mg/kg
